According to article PMC8500670, “A selective WDR5 degrader inhibits acute myeloid leukemia in patient-derived mouse models” (Science translational medicine, 2021):

Tests used:
Test in all cases: biochemical
Set-up in all cases: protein methyltransferase inhibition panel, single concentration, duplicate
[1] = target: DOT1L (Homo sapiens, UniProt Q8TEK3)
Experimental: (§1) We next assessed selectivity of MS67 against 22 protein methyltransferases (table S2) and a broad panel of common drug targets including 45 kinases (table S3) and 44 G protein–coupled receptors (GPCR), ion channels, and transporters (table S4). […] We subsequently determined that MS67 had moderate binding affinity (Ki = 1.0 ± 0.8 μM) to Sigma 2 receptor (fig. S10).

[2] = target: NSD1 (Homo sapiens, UniProt Q96L73)
Experimental: as §1

[3] = target: T1, NSD2 (Homo sapiens, UniProt O96028)
T1 sequence (O96028 1-1365): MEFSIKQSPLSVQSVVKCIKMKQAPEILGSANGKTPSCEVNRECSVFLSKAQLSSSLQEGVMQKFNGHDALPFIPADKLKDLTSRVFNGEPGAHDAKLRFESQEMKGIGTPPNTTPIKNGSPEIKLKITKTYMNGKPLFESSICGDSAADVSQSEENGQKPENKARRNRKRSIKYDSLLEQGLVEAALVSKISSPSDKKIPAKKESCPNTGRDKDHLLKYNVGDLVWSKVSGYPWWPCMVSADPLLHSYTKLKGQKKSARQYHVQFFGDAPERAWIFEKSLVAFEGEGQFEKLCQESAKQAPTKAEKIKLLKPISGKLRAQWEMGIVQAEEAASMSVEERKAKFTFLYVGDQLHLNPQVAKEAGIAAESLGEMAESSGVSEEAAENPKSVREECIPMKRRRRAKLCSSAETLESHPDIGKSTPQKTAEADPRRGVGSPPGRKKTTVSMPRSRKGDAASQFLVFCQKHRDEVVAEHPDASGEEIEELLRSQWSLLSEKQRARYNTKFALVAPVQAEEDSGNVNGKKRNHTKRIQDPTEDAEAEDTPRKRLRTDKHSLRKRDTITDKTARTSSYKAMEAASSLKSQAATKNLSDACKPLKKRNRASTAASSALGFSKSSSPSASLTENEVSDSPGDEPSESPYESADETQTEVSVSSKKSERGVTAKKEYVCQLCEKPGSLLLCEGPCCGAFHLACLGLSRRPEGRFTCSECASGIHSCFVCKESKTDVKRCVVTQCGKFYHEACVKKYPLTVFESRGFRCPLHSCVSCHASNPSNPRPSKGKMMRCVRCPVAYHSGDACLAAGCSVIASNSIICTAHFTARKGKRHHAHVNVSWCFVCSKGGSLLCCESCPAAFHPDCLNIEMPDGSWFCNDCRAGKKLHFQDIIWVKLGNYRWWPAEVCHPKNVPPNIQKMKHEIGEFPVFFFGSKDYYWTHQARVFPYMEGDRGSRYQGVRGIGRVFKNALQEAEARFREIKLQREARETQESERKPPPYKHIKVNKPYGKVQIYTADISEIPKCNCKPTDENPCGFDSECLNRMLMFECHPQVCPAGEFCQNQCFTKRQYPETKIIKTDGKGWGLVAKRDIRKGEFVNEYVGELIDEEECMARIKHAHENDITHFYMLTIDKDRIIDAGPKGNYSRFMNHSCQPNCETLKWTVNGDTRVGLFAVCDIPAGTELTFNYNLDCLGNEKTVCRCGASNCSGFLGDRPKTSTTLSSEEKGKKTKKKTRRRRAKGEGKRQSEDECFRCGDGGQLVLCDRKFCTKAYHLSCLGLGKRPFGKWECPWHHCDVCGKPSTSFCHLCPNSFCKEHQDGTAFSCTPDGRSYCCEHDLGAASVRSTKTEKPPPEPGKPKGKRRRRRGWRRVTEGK
Experimental: as §1

[4] = target: PRMT3 (Homo sapiens, UniProt O60678)
Experimental: as §1

[5] = target: T2, PRMT7 (Homo sapiens, UniProt Q9NVM4)
T2 sequence (Q9NVM4 1-692): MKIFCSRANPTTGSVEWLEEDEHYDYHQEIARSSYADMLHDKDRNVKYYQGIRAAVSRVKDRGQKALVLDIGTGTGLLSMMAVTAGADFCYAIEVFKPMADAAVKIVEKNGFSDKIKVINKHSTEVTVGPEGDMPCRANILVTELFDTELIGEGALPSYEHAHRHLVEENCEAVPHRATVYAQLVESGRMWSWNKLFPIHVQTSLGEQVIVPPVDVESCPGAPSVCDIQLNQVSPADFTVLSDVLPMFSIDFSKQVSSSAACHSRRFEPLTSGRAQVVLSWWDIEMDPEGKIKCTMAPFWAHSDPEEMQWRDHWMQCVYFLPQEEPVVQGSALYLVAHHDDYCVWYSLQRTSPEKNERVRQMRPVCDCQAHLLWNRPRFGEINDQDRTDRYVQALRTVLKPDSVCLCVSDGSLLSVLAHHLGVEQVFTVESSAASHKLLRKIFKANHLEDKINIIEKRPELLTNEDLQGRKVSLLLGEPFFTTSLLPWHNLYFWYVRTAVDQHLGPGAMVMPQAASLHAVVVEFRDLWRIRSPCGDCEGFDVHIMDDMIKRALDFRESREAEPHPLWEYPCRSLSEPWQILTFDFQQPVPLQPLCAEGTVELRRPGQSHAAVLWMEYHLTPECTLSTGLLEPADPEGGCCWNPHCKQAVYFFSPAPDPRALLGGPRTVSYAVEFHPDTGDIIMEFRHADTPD
Experimental: as §1

[6] = target: PRMT8 (Homo sapiens, UniProt Q9NR22)
Experimental: as §1

[7] = target: T3, SET8 (Homo sapiens, UniProt Q9NQR1)
T3 construct: gene KMT5A
T3 sequence (Q9NQR1 1-393): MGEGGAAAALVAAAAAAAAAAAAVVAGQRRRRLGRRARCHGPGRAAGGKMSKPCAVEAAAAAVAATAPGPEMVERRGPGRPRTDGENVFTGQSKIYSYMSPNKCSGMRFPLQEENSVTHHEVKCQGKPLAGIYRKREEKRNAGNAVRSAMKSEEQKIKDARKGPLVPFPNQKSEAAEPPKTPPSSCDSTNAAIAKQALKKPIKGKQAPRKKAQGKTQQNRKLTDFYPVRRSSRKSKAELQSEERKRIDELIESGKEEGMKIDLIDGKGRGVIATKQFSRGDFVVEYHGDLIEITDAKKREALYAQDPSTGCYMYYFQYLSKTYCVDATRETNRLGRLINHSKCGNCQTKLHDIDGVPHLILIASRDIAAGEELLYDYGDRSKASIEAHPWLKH
Experimental: as §1

Measured: inhibition at 10 µM

Sequence of NSD1 (Q96L73 whole entry): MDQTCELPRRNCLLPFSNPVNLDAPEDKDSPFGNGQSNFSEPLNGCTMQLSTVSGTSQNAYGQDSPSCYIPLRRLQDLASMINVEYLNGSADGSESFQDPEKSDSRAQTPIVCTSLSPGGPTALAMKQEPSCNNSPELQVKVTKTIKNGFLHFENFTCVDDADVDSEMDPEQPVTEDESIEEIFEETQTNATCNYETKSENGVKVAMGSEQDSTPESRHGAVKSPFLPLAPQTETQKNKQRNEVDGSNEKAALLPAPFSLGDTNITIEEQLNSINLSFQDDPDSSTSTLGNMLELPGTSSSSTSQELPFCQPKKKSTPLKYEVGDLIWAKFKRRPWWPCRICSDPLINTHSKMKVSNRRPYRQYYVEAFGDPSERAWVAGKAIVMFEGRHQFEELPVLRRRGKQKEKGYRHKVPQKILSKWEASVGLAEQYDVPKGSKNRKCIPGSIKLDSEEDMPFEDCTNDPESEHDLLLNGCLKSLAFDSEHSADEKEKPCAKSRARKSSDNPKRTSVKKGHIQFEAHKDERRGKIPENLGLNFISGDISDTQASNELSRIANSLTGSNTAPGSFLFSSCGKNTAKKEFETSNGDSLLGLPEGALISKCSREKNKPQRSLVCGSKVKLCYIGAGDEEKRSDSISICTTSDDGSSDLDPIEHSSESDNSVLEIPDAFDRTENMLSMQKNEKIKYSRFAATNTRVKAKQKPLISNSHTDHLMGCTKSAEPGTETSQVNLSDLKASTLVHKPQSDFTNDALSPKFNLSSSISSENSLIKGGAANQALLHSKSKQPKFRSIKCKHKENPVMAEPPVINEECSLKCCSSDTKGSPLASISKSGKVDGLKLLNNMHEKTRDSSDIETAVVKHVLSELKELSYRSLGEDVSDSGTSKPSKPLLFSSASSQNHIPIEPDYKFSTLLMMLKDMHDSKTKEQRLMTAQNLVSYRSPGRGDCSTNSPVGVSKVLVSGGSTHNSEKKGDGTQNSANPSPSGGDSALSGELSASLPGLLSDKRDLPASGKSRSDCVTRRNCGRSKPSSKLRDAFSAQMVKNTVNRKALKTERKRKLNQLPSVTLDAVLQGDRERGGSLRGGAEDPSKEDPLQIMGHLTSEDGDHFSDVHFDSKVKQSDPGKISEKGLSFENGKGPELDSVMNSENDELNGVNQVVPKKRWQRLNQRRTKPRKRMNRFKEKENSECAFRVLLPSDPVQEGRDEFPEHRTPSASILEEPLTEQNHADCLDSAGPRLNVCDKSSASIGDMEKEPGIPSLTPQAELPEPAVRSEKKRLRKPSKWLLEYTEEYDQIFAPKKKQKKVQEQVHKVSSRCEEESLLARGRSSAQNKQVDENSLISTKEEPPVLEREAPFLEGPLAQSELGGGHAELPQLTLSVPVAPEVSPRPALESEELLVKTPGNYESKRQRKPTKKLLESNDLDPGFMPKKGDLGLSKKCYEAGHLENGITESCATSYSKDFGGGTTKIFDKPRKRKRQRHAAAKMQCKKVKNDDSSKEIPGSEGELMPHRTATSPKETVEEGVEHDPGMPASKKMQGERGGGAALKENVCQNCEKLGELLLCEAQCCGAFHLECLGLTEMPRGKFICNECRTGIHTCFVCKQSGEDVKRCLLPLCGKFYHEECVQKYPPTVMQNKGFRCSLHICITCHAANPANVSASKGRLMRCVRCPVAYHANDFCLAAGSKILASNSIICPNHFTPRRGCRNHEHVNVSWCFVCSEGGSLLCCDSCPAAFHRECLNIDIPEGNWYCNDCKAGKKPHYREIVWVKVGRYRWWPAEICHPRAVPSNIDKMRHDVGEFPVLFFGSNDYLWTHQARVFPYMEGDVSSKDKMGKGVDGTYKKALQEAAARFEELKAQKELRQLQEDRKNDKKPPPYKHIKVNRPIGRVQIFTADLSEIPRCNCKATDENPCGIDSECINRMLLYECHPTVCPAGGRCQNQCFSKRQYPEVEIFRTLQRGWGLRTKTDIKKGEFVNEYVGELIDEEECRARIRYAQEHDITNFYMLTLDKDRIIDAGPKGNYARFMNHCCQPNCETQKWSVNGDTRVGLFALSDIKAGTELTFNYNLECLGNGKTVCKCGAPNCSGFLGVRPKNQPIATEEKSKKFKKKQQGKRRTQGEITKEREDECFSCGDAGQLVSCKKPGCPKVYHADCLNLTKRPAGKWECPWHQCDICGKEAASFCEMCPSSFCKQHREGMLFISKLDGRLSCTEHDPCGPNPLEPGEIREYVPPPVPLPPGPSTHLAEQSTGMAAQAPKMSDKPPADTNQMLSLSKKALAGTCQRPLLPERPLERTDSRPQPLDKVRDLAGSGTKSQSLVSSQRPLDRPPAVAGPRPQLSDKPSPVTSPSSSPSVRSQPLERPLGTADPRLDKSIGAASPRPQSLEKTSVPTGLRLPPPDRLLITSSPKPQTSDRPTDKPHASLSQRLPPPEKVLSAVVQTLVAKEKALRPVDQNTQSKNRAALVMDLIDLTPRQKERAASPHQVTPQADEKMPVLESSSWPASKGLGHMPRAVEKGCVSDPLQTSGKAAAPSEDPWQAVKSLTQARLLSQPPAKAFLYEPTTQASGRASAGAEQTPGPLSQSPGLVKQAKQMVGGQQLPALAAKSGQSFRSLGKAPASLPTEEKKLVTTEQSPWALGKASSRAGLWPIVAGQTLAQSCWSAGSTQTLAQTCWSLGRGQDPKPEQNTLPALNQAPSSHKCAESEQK
Sequence of PRMT8 (Q9NR22 whole entry): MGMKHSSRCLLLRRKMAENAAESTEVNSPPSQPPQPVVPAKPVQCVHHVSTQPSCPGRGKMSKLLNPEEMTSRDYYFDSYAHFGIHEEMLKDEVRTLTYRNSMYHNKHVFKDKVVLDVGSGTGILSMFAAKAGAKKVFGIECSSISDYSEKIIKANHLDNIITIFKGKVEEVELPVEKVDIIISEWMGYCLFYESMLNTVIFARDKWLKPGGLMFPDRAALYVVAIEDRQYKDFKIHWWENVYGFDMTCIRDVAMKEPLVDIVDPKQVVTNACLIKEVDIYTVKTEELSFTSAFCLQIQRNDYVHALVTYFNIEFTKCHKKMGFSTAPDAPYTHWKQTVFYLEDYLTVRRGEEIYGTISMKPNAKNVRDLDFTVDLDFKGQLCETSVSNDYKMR
Sequence of PRMT3 (O60678 whole entry): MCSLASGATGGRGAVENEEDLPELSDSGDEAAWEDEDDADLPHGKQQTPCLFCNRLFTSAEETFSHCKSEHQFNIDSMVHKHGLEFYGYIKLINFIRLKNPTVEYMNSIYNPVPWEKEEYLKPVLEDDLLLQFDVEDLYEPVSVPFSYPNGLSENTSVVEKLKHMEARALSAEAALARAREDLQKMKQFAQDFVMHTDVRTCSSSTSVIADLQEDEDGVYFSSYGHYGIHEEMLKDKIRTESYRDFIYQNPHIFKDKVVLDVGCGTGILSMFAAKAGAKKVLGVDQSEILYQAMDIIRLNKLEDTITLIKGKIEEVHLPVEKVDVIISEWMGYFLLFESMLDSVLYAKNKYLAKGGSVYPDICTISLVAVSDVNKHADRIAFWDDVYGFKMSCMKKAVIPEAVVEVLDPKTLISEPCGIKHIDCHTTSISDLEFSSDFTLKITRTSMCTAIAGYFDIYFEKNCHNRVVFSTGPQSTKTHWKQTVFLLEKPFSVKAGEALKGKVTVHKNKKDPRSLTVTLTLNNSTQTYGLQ

Cc1ncsc1-c1ccc([C@H](C)NC(=O)[C@@H]2C[C@@H](O)CN2C(=O)[C@@H](NC(=O)CNC(=O)c2ccc(F)c(-c3ccc(N4C[C@@H](C)N(C)[C@@H](C)C4)c(NC(=O)c4c[nH]c(=O)cc4C(F)(F)F)c3)c2)C(C)(C)C)cc1 [MS67]
< 10%: all assays above
